Measurements reported in patent publication US5621010A, “Urea derivatives and their use as ACAT inhibitors” (Nisshin Flour Milling Co., Ltd., priority 1993, dated 1997).

Tests used:
[1] = tested on: Human LDL; assay: Antioxidative activity: inhibition of MDA formation from LDL incubated with cupric sulfate; format: biochemical; settings: compound 10^-5 M; cupric sulfate 5×10^-6 M; 5 hrs; compared with control
Experimental: Human LDL was incubated in the presence of cupric sulfate (5×10^-6 M) and in the presence or absence of a compound (10^-5 M) for 5 hrs. After the incubation, the peroxidation of low-density lipoproteins (LDL) is evaluated by the formation of malondialdehyde (MDA), which is a sort of lipid peroxides according to the method of Simon J. T. Mao et al. (J. Med. Chem., Vol. 34, pages 298-302, 1991). Activity of the compound is shown by percent inhibition of the MDA formation as compared with control.

[2] = tested on: ACAT (liver microsome fractions of male rabbits); assay: ACAT inhibitory activity: formation of labelled cholesteryl esters from [1-14C]oleoyl-CoA and endogenous cholesterol; format: biochemical, rabbit; settings: compound added at 10^-7 M
Experimental: The enzyme preparation, ACAT was prepared from liver microsme fractions of male rabbits according to the method of E. E. Largis et al. (Journal of Lipid Research, Vol. 30, pages 681-690, 1989). The activity was calculated by assaying the amount of the labelled cholesteryl esters formed from [1-^14 C]oleoyl-CoA and endogenous cholesterol according to the method of Kazuichi NATORI et al. (Japan J. Pharmacol., Vol. 42, pages 517-523, 1986).
The result is shown in Table 1, in which percent inhibition of the formation of the labelled cholesteryl esters with a compound added at 10^-7 M is indicated as index for the ACAT inhibitory activity.

SMILES: CC(C)=CCCC(C)=CCNC(=O)Nc1ccccc1CCc1cc(C(C)(C)C)c(O)c(C(C)(C)C)c1 [Example 13, N-[2-(3,5-di-tert-butyl-4-hydroxyphenethyl)phenyl]-N'-(3,7-dimethyl-2,6-octadienyl)urea]
- Antioxidant Activity (percent inhibition of the MDA formation) [1]: 92%
- ACAT Inhibition [2]: 90%

SMILES: CN(C(=O)Nc1ccccc1CCc1cc(C(C)(C)C)c(O)c(C(C)(C)C)c1)C1CCCCC1 [Example 43, N-[2-(3,5-di-tert-butyl-4-hydroxyphenethyl)phenyl]-N'-cyclohexyl-N'-methylurea]
- Antioxidant Activity (percent inhibition of the MDA formation) [1]: 99%
- ACAT Inhibition [2]: 99%

SMILES: CN(Cc1c2ccccc2cc2ccccc12)C(=O)Nc1ccccc1CCc1cc(C(C)(C)C)c(O)c(C(C)(C)C)c1 [Example 44, N-[2-(3,5-di-tert-butyl-4-hydroxyphenethyl)phenyl]-N'-(9-anthryl)methyl-N'-methylurea]
- Antioxidant Activity (percent inhibition of the MDA formation) [1]: 94%
- ACAT Inhibition [2]: 90%

SMILES: CC(C)(C)c1cc(CCc2ccccc2NC(=O)NC2CCCC2)cc(C(C)(C)C)c1O [Example 16, N-[2-(3,5-di-tert-butyl-4-hydroxyphenethyl)phenyl]-N'-cyclopentylurea]
- Antioxidant Activity (percent inhibition of the MDA formation) [1]: 95%
- ACAT Inhibition [2]: 93%

SMILES: CCCCCCCNC(=O)Nc1ccccc1CCc1cc(C(C)(C)C)c(O)c(C(C)(C)C)c1 [Example 12, N-[2-(3,5-di-tert-butyl-4-hydroxyphenethyl)phenyl]-N'-heptylurea]
- Antioxidant Activity (percent inhibition of the MDA formation) [1]: 94%
- ACAT Inhibition [2]: 91%

SMILES: CCOCCCNC(=O)Nc1ccccc1CCc1cc(C(C)(C)C)c(O)c(C(C)(C)C)c1 [Example 15, N-[2-(3,5-di-tert-butyl-4-hydroxyphenethyl)phenyl]-N'-(3-ethoxypropyl)urea]
- Antioxidant Activity (percent inhibition of the MDA formation) [1]: 99%
- ACAT Inhibition [2]: 76%

SMILES: CC(C)(C)c1cc(CCc2ccccc2NC(=O)NC(c2ccccc2)c2ccccc2)cc(C(C)(C)C)c1O [Example 29, N-[2-(3,5-di-tert-butyl-4-hydroxyphenethyl)phenyl]-N'-diphenylmethylurea]
- Antioxidant Activity (percent inhibition of the MDA formation) [1]: 95%
- ACAT Inhibition [2]: 99%

SMILES: CC(C)(C)c1cc(CCc2ccccc2NC(=O)NCC2CCCCC2)cc(C(C)(C)C)c1O [Example 90, N-[2-(3,5-di-tert-butyl-4-hydroxyphenethyl)phenyl]-N'-(cyclohexylmethyl)urea]
- Antioxidant Activity (percent inhibition of the MDA formation) [1]: 93%
- ACAT Inhibition [2]: 92%

SMILES: CC(C)(C)c1cc(CCc2ccccc2NC(=O)NCC(c2ccccc2)c2ccccc2)cc(C(C)(C)C)c1O [Example 6, N-[2-(3,5-di-tert-butyl-4-hydroxyphenethyl)phenyl]-N'-(2,2-diphenylethyl)urea]
- Antioxidant Activity (percent inhibition of the MDA formation) [1]: 98%
- ACAT Inhibition [2]: 99%

SMILES: CCCCCCCN(C)C(=O)Nc1ccccc1CCc1cc(C(C)(C)C)c(O)c(C(C)(C)C)c1 [Example 41, N-[2-(3,5-di-tert-butyl-4-hydroxyphenethyl)phenyl]-N'-heptyl-N'-methylurea]
- Antioxidant Activity (percent inhibition of the MDA formation) [1]: 99%
- ACAT Inhibition [2]: 97%

SMILES: CN1CC2CC(NC(=O)Nc3ccccc3CCc3cc(C(C)(C)C)c(O)c(C(C)(C)C)c3)CC(C1)N2C (stereo not shown) [Example 39, N-[2-(3,5-di-tert-butyl-4-hydroxyphenethyl)phenyl]-N'-(3,9-dimethyl-3,9-diazabicyclo[3.3.1]-7-nonyl)urea]
- Antioxidant Activity (percent inhibition of the MDA formation) [1]: 87%
- ACAT Inhibition [2]: 88%

SMILES: CC(C)(C)c1cc(CCc2ccccc2NC(=O)NCC2(c3ccc4c(c3)OCO4)CCCC2)cc(C(C)(C)C)c1O [Example 76, N-[2-(3,5-di-tert-butyl-4-hydroxyphenethyl)phenyl]-N'-[[1-(3,4-methylenedioxyphenyl)cyclopentyl]methyl]urea]
- Antioxidant Activity (percent inhibition of the MDA formation) [1]: 96%
- ACAT Inhibition [2]: 98%

SMILES: CCCCCCCN(Cc1ccccc1)C(=O)Nc1ccccc1CCc1cc(C(C)(C)C)c(O)c(C(C)(C)C)c1 [Example 40, N-[2-(3,5-di-tert-butyl-4-hydroxyphenethyl)phenyl]-N'-benzyl-N'-heptylurea]
- Antioxidant Activity (percent inhibition of the MDA formation) [1]: 98%
- ACAT Inhibition [2]: 96%

SMILES: CC(C)(C)c1cc(CCc2ccccc2NC(=O)N2CCN(c3ccccc3)CC2)cc(C(C)(C)C)c1O [Example 124, 1-[N-[2-(3,5-di-tert-butyl-4-hydroxyphenethyl)phenyl]carbamoyl]-4-phenylpiperazine]
- Antioxidant Activity (percent inhibition of the MDA formation) [1]: 95%
- ACAT Inhibition [2]: 81%

SMILES: CC(C)(C)c1cc(CCc2ccccc2NC(=O)NC2CCN(Cc3ccc(F)cc3F)CC2)cc(C(C)(C)C)c1O [Example 80, N-[2-(3,5-di-tert-butyl-4-hydroxyphenethyl)phenyl]-N'-[1-(2,4-difluorobenzyl)-4-pyperidyl]urea]
- Antioxidant Activity (percent inhibition of the MDA formation) [1]: 96%
- ACAT Inhibition [2]: 92%

SMILES: CC(C)(C)c1cc(CCc2ccccc2NC(=O)NC2CCCCCC2)cc(C(C)(C)C)c1O [Example 4, N-[2-(3,5-di-tert-butyl-4-hydroxyphenethyl)phenyl]-N'-cycloheptylurea]
- Antioxidant Activity (percent inhibition of the MDA formation) [1]: 98%
- ACAT Inhibition [2]: 95%

SMILES: CC(C)(C)c1cc(CCc2ccccc2NC(=O)NC2CCC(C(C)(C)C)CC2)cc(C(C)(C)C)c1O (stereo not shown) [Example 52, N-[2-(3,5-di-tert-butyl-4-hydroxyphenethyl)phenyl]-N'-(4-tert-butylcyclohexyl)urea]
- Antioxidant Activity (percent inhibition of the MDA formation) [1]: 94%
- ACAT Inhibition [2]: 97%

SMILES: CCCCCCOc1ccc(NC(=O)Nc2ccccc2CCc2cc(C(C)(C)C)c(O)c(C(C)(C)C)c2)cc1 [Example 1, N-[2-(3,5-di-tert-butyl-4-hydroxyphenethyl)phenyl]-N'-(4-hexyloxyphenyl)urea]
- Antioxidant Activity (percent inhibition of the MDA formation) [1]: 94%
- ACAT Inhibition [2]: 83%

SMILES: CC(C)(C)c1cc(CCc2ccccc2NC(=O)NCCc2ccccc2)cc(C(C)(C)C)c1O [Example 5, N-[2-(3,5-di-tert-butyl-4-hydroxyphenethyl)phenyl]-N'-phenethylurea]
- Antioxidant Activity (percent inhibition of the MDA formation) [1]: 100%
- ACAT Inhibition [2]: 89%

SMILES: CN(C(=O)Nc1ccccc1CCc1cc(C(C)(C)C)c(O)c(C(C)(C)C)c1)C1CCCN(Cc2ccccc2)C1 (stereo not shown) [Example 99, N-[2-(3,5-di-tert-butyl-4-hydroxyphenethyl)phenyl]-N'-(1-benzyl-3-piperidyl)-N'-methylurea]
- Antioxidant Activity (percent inhibition of the MDA formation) [1]: 95%
- ACAT Inhibition [2]: 100%

SMILES: CC(C)(C)c1cc(CCc2ccccc2NC(=O)N2CCc3ccccc3C2)cc(C(C)(C)C)c1O [Example 117, 2-[N-[2-(3,5-di-tert-butyl-4-hydroxyphenethyl)phenyl]carbamoyl]-1,2,3,4-tetrahydroisoquinoline]
- Antioxidant Activity (percent inhibition of the MDA formation) [1]: 97%
- ACAT Inhibition [2]: 91%

SMILES: CC(C)(C)c1cc(CCc2ccccc2NC(=O)NCc2ccco2)cc(C(C)(C)C)c1O [Example 30, N-[2-(3,5-di-tert-butyl-4-hydroxyphenethyl)phenyl]-N'-[(2-furyl)methyl]urea]
- Antioxidant Activity (percent inhibition of the MDA formation) [1]: 92%
- ACAT Inhibition [2]: 84%

SMILES: CC(C)(C)c1cc(CCc2ccccc2NC(=O)N(Cc2ccccc2)Cc2ccccc2)cc(C(C)(C)C)c1O [Example 42, N-[2-(3,5-di-tert-butyl-4-hydroxyphenethyl)phenyl]-N',N'-dibenzylurea]
- Antioxidant Activity (percent inhibition of the MDA formation) [1]: 97%
- ACAT Inhibition [2]: 95%

SMILES: CC(C)(C)c1cc(CCc2ccccc2NC(=O)NC2CCCCC2)cc(C(C)(C)C)c1O [Example 17, N-[2-(3,5-di-tert-butyl-4-hydroxyphenethyl)phenyl]-N'-cyclohexylurea]
- Antioxidant Activity (percent inhibition of the MDA formation) [1]: 99%
- ACAT Inhibition [2]: 92%

SMILES: CC(C)(C)c1cc(CCc2ccccc2NC(=O)NC2CCCCCCC2)cc(C(C)(C)C)c1O [Example 18, N-[2-(3,5-di-tert-butyl-4-hydroxyphenethyl)phenyl]-N'-cyclooctylurea]
- Antioxidant Activity (percent inhibition of the MDA formation) [1]: 97%
- ACAT Inhibition [2]: 97%

SMILES: CC(C)(C)c1cc(CCc2ccccc2NC(=O)NC(C)(C)c2ccc(Cl)c(Cl)c2)cc(C(C)(C)C)c1O [Example 74, N-[2-(3,5-di-tert-butyl-4-hydroxyphenethyl)phenyl]-N'-[2-(3,4-dichlorophenyl)-2-propyl]urea]
- Antioxidant Activity (percent inhibition of the MDA formation) [1]: 95%
- ACAT Inhibition [2]: 96%

SMILES: CC(C)(C)c1cc(CCc2ccccc2NC(=O)NCC(C)(C)c2ccc(Cl)c(Cl)c2)cc(C(C)(C)C)c1O [Example 77, N-[2-(3,5-di-tert-butyl-4-hydroxyphenethyl)phenyl]-N'-[2-(3,4-dichlorophenyl)-2-methylpropyl]urea]
- Antioxidant Activity (percent inhibition of the MDA formation) [1]: 95%
- ACAT Inhibition [2]: 96%

SMILES: CC(C)(C)c1cc(CCc2ccccc2NC(=O)NC(C2CCCCC2)C2CCCCC2)cc(C(C)(C)C)c1O [Example 50, N-[2-(3,5-di-tert-butyl-4-hydroxyphenethyl)phenyl]-N'-(dicyclohexylmethyl)urea]
- Antioxidant Activity (percent inhibition of the MDA formation) [1]: 90%
- ACAT Inhibition [2]: 88%

SMILES: CCSCCNC(=O)Nc1ccccc1CCc1cc(C(C)(C)C)c(O)c(C(C)(C)C)c1 [Example 38, N-[2-(3,5-di-tert-butyl-4-hydroxyphenethyl)phenyl]-N'-(2-ethylthioethyl)urea]
- Antioxidant Activity (percent inhibition of the MDA formation) [1]: 94%
- ACAT Inhibition [2]: 71%
